Results: the CheMixHub viscosity set

Assay: xn = mol fraction of the nth substance listed
Details: 101 kPa

CCCC[n+]1ccn(C)c1.[Cl][Al-]([Cl])([Cl])[Cl] + Cc1ccccc1
x2 = 0.37
Details	viscosity [mPa·s]
293.15 K	18.2
298.15 K	16.6
303.15 K	14.6
308.15 K	13.1
313.15 K	11.6
318.15 K	10.5
323.15 K	9.6

Nc1ccccc1 + Cc1ccccc1
viscosity [mPa·s]
Details	298.15 K	303.15 K	308.15 K	313.15 K
x1 = 0.0977	0.62	0.576	0.545	0.495
x1 = 0.1155	–	–	0.5602	–
x1 = 0.116	0.5955	–	–	–
x1 = 0.198	0.701	0.653	0.615	0.57
x1 = 0.2272	0.681	–	–	–
x1 = 0.2298	–	–	0.7052	–
x1 = 0.3004	0.814	0.752	0.72	0.65
x1 = 0.3224	–	–	0.7335	–
x1 = 0.3354	0.8149	–	–	–
x1 = 0.3917	0.94	0.867	0.803	0.74
x1 = 0.4199	–	–	0.8736	–
x1 = 0.4399	0.9747	–	–	–
x1 = 0.4993	1.146	1.074	0.954	0.872
x1 = 0.5404	1.169	–	–	–
x1 = 0.5446	–	–	1.039	–
x1 = 0.6003	1.406	1.253	1.139	1.03
x1 = 0.6191	–	–	1.19	–
x1 = 0.6382	1.427	–	–	–
x1 = 0.69	–	–	1.391	–
x1 = 0.6978	1.723	1.522	1.367	1.216
x1 = 0.7815	–	–	1.647	–
x1 = 0.8009	2.199	1.907	1.696	1.486
x1 = 0.835	–	–	1.891	–
x1 = 0.8998	2.822	2.423	2.122	1.863
